# Reference: ChEMBL document CHEMBL4831491, “Non-carboxylic acid inhibitors of aldose reductase based on N-substituted thiazolidinedione derivatives” (Eur J Med Chem, 2021)
# pIC50: −log10 of the molar value.
# Legend:
# [1] = Solubility of the compound at >30 uM; assay type: physicochemical
# Rattus norvegicus [2] = species on record: Rattus norvegicus; experiment: Inhibition of ALR2 in Wistar rat lens assessed as reduction in NADPH consumption at 30 uM using D,L-glyceraldehyde and NADPH as substrate preincubated for 1 mins followed by substrate addition and measured upto 4 mins by spectrophotometric analysis; assay type: tissue-based; settings: time 5.0 min
# physchem [3] = settings: PBS buffer, pH 7.4
# [4] = Inhibition of ALR1 in Wistar rat kidney assessed as reduction in NADPH consumption using sodium D-glucuronate and NADPH as substrate preincubated for 1 mins followed by substrate addition and measured upto 4 mins by spectrophotometric analysis; assay type: tissue-based
# [5] = Inhibition of ALR2 in Wistar rat lens assessed as reduction in NADPH consumption using D,L-glyceraldehyde and NADPH as substrate preincubated for 1 mins followed by substrate addition and measured upto 4 mins by spectrophotometric analysis; assay type: tissue-based; settings: for pIC50: read-out: IC50
# physchem [6] = settings: n-octanol/PBS buffer, pH 7.4
# Rattus norvegicus [7] = species on record: Rattus norvegicus; experiment: Inhibition of ALR2 in Wistar rat lens assessed as reduction in NADPH consumption at 10 uM using D,L-glyceraldehyde and NADPH as substrate preincubated for 1 mins followed by substrate addition and measured upto 4 mins by spectrophotometric analysis; assay type: tissue-based; settings: time 5.0 min
# Rattus norvegicus [8] = species on record: Rattus norvegicus; experiment: Inhibition of ALR2 in Wistar rat lens assessed as reduction in NADPH consumption at 50 uM using D,L-glyceraldehyde and NADPH as substrate preincubated for 1 mins followed by substrate addition and measured upto 4 mins by spectrophotometric analysis; assay type: tissue-based; settings: time 5.0 min
# Rattus norvegicus [9] = species on record: Rattus norvegicus; experiment: Selectivity index, ratio of IC50 for ALR1 in Wistar rat kidney to IC50 for ALR2 in Wistar rat lens
# in vitro [10] = settings: dog, MDCK
# Description: Efflux ratio of apparent permeability in dog MDCK-II cells
# in vitro [11] = settings: dog, MDCK; remark: listed apart in the source
# Description: Apparent permeability of the compound across apical side to basolateral side in dog MDCK-II cells incubated for 150 mins by LC-MS/MS analysis
# in vitro [12] = settings: dog, MDCK; remark: listed apart in the source
# Description: Apparent permeability of the compound across basolateral side to apical side in dog MDCK-II cells incubated for 150 mins by LC-MS/MS analysis
# in vitro [13] = settings: human, Caco-2
# Description: Efflux ratio of apparent permeability in human Caco-2 cells
# in vitro [14] = settings: human, Caco-2; remark: listed apart in the source
# Description: Apparent permeability of the compound across basolateral side to apical side in human Caco-2 cells incubated for 150 mins by LC-MS/MS analysis
# in vitro [15] = settings: human, Caco-2; remark: listed apart in the source
# Description: Apparent permeability of the compound across apical side to basolateral side in human Caco-2 cells incubated for 150 mins by LC-MS/MS analysis
structure (smiles),measurement,setting,value
CCN(CC)C(=O)CN1C(=O)S/C(=C\c2ccc(C)cc2)C1=O,solubility,[1],Insoluble
same,inhibition,Rattus norvegicus [2],20.2%
O=C(CN1C(=O)S/C(=C\c2ccc(O)cc2)C1=O)Nc1ccccc1Cl,"solubility at 2 h, 200 µM",physchem [3],5.24 µM
same,pIC50,[4],4.87
same,pIC50,[5],6.02
same,logD,physchem [6],3.68
CCCCNC(=O)CN1C(=O)S/C(=C\c2ccc(Cl)cc2)C1=O,solubility,[1],Insoluble
same,inhibition,Rattus norvegicus [7],6.53%
CCN(CC)C(=O)CN1C(=O)S/C(=C\c2ccc(O)c(OC)c2)C1=O,inhibition,Rattus norvegicus [8],48%
same,pIC50,[5],4.25
C#CCOc1ccc(/C=C2\SC(=O)N(CC(=O)NCc3ccccc3)C2=O)cc1,inhibition,Rattus norvegicus [7],30.1%
same,IC50,[5],Nd(Insoluble)
CCN(CC)C(=O)CN1C(=O)S/C(=C\c2ccc(OC)c(O)c2)C1=O,inhibition,Rattus norvegicus [8],31.6%
COc1ccc(NC(=O)CN2C(=O)S/C(=C\c3ccc(O)cc3)C2=O)cc1,pIC50,[4],5.28
same,Ratio IC50,Rattus norvegicus [9],3.2
same,pIC50,[5],5.78
COc1ccc(/C=C2\SC(=O)N(CC(=O)NCc3ccccc3)C2=O)cc1O,pIC50,[5],4.96
Cc1ncc2n1-c1ccc(Cl)cc1C(c1ccccc1F)=NC2 [MIDAZOLAM],logD,physchem [6],3.28
CCN(CC)C(=O)CN1C(=O)S/C(=C\c2cccc(Cl)c2)C1=O,solubility,[1],Insoluble
same,inhibition,Rattus norvegicus [2],0%
CCN(CC)C(=O)CN1C(=O)S/C(=C\c2ccccc2)C1=O,solubility,[1],Insoluble
same,inhibition,Rattus norvegicus [7],16.8%
same,pIC50,[5],4.63
O=C(CN1C(=O)S/C(=C\c2ccccc2)C1=O)NCCc1ccccc1,solubility,[1],Insoluble
same,inhibition,Rattus norvegicus [7],13.2%
O=C(CCCN1CCC(O)(c2ccc(Cl)cc2)CC1)c1ccc(F)cc1 [HALOPERIDOL],"solubility at 2 h, 200 µM",physchem [3],73.3 µM
CCCCNC(=O)CN1C(=O)S/C(=C\c2ccc(OC)cc2)C1=O,pIC50,[4],4.77
same,solubility,[1],Insoluble
same,Ratio IC50,Rattus norvegicus [9],0.8
same,pIC50,[5],4.69
COc1ccc(NC(=O)CN2C(=O)S/C(=C\c3ccccc3)C2=O)cc1,solubility,[1],Insoluble
same,inhibition,Rattus norvegicus [7],29.2%
CCN(CC)C(=O)CN1C(=O)S/C(=C\c2cccc(OC)c2)C1=O,solubility,[1],Insoluble
same,inhibition,Rattus norvegicus [2],15%
O=C(CN1C(=O)S/C(=C\c2cccc(O)c2)C1=O)NCc1ccccc1,pIC50,[4],4.55
same,Ratio IC50,Rattus norvegicus [9],8.6
same,pIC50,[5],5.49
CCc1ccc(/C=C2\SC(=O)N(CC(=O)N(CC)CC)C2=O)cc1,solubility,[1],Insoluble
same,inhibition,Rattus norvegicus [2],5.05%
CCN(CC)C(=O)CN1C(=O)S/C(=C\c2ccc(O)cc2)C1=O,pIC50,[4],4.90
same,solubility,[1],Insoluble
same,inhibition,Rattus norvegicus [7],77.7%
same,Ratio IC50,Rattus norvegicus [9],9.4
same,pIC50,[5],5.88
CCN(CC)C(=O)CN1C(=O)S/C(=C/c2ccc(OC)c(OC)c2)C1=O,inhibition,Rattus norvegicus [8],81.8%
same,pIC50,[5],4.65
COc1cc2nc(N3CCN(C(=O)c4ccco4)CC3)nc(N)c2cc1OC [PRAZOSIN],efflux ratio,in vitro [10],1.9
same,Papp A→B at 2.5 h,in vitro [11],6.85 ×10⁻⁶ cm/s
same,Papp B→A at 2.5 h,in vitro [12],12.9 ×10⁻⁶ cm/s
C#CCOc1ccc(/C=C2\SC(=O)N(CC(=O)Nc3ccccc3)C2=O)cc1,inhibition,Rattus norvegicus [7],8.83%
same,IC50,[5],Nd(Insoluble)
C=C[C@H]1C[N@@]2CC[C@H]1C[C@@H]2[C@@H](O)c1ccnc2ccc(OC)cc12 [QUINIDINE],efflux ratio,in vitro [10],6.6
same,Papp A→B at 2.5 h,in vitro [11],3.27 ×10⁻⁶ cm/s
same,Papp B→A at 2.5 h,in vitro [12],21.4 ×10⁻⁶ cm/s
O=C(CN1C(=O)S/C(=C\c2ccc(OCc3ccc(Cl)cc3Cl)cc2)C1=O)NCc1ccccc1,inhibition,Rattus norvegicus [7],11.9%
same,IC50,[5],Nd(Insoluble)
O=C(CN1C(=O)S/C(=C\c2ccccc2)C1=O)NC1CC1,solubility,[1],Insoluble
same,inhibition,Rattus norvegicus [7],2.85%
CC(/C=C1\SC(=S)N(CC(=O)O)C1=O)=C\c1ccccc1,pIC50,[5],6.64
C[C@H]1O[C@@H](O[C@H]2[C@@H](O)C[C@H](O[C@H]3[C@@H](O)C[C@H](O[C@H]4CC[C@@]5(C)[C@H](CC[C@@H]6[C@@H]5C[C@@H](O)[C@]5(C)[C@@H](C7=CC(=O)OC7)CC[C@]65O)C4)O[C@@H]3C)O[C@@H]2C)C[C@H](O)[C@@H]1O [DIGOXIN],efflux ratio,in vitro [10],30.3
same,Papp A→B at 2.5 h,in vitro [11],0.19 ×10⁻⁶ cm/s
same,Papp B→A at 2.5 h,in vitro [12],5.66 ×10⁻⁶ cm/s
CCc1ccccc1NC(=O)CN1C(=O)S/C(=C\c2ccc(O)cc2)C1=O,pIC50,[4],5.55
same,Ratio IC50,Rattus norvegicus [9],1.5
same,pIC50,[5],5.72
O=C(CN1C(=O)S/C(=C\c2ccc(O)cc2)C1=O)Nc1ccc(F)cc1,pIC50,[4],5.09
same,Ratio IC50,Rattus norvegicus [9],5.4
same,pIC50,[5],5.83
CC/C(=C(/CC)c1ccc(O)cc1)c1ccc(O)cc1 [DIETHYLSTILBESTROL],"solubility at 2 h, 200 µM",physchem [3],11.9 µM
COCCc1ccc(OCC(O)CNC(C)C)cc1 (centres undefined) [METOPROLOL],logD,physchem [6],0.05
COc1ccc(/C=C2\SC(=O)N(CC(=O)Nc3ccccc3)C2=O)cc1O,inhibition,Rattus norvegicus [7],29.9%
same,IC50,[5],Nd(Insoluble)
NC(=O)N1c2ccccc2C=Cc2ccccc21 [CARBAMAZEPINE],efflux ratio,in vitro [13],0.9
same,Papp B→A at 2.5 h,in vitro [14],24.8 ×10⁻⁶ cm/s
same,Papp A→B at 2.5 h,in vitro [15],26.2 ×10⁻⁶ cm/s
O=C(CN1C(=O)S/C(=C\c2ccc(OCc3ccc(Cl)cc3Cl)cc2)C1=O)Nc1ccccc1,inhibition,Rattus norvegicus [7],21.8%
same,IC50,[5],Nd(Insoluble)
CCOc1ccc(NC(=O)CN2C(=O)S/C(=C\c3ccc(OC)c(O)c3)C2=O)cc1,inhibition,Rattus norvegicus [7],25.3%
same,IC50,[5],Nd(Insoluble)
O=c1[nH]c2ccccc2n1CCCN1CCC(n2c(=O)[nH]c3cc(Cl)ccc32)CC1 [DOMPERIDONE],efflux ratio,in vitro [13],12.2
same,Papp B→A at 2.5 h,in vitro [14],30.8 ×10⁻⁶ cm/s
same,Papp A→B at 2.5 h,in vitro [15],2.5 ×10⁻⁶ cm/s
CCN(CC)C(=O)CN1C(=O)S/C(=C\c2cccs2)C1=O,solubility,[1],Insoluble
same,inhibition,Rattus norvegicus [2],6.22%
CN(C)CCC=C1c2ccccc2CCc2ccccc21 [AMITRIPTYLINE],logD,physchem [6],2.85
CCN(CC)C(=O)CN1C(=O)S/C(=C\c2cccc(O)c2)C1=O,solubility,[1],Insoluble
same,inhibition,Rattus norvegicus [2],0%
O=C(CN1C(=O)S/C(=C\c2ccc(O)cc2)C1=O)NCc1ccccc1,pIC50,[5],4.70
O=C(CN1C(=O)S/C(=C\c2ccc(O)cc2)C1=O)Nc1ccccc1,pIC50,[4],5.41
same,Ratio IC50,Rattus norvegicus [9],1.3
same,pIC50,[5],5.53
CCN(CC)C(=O)CN1C(=O)S/C(=C\c2ccc(OC)cc2)C1=O,solubility,[1],Insoluble
same,inhibition,Rattus norvegicus [2],19.5%
CCCCNC(=O)CN1C(=O)S/C(=C\c2ccc(O)cc2)C1=O,pIC50,[4],4.31
same,solubility,[1],Insoluble
same,Ratio IC50,Rattus norvegicus [9],8.5
same,pIC50,[5],5.25
CCN(CC)C(=O)CN1C(=O)S/C(=C\c2ccc(Cl)cc2)C1=O,solubility,[1],Insoluble
same,inhibition,Rattus norvegicus [2],14%
